Laboratory results as given in patent US8802597B2, “Herbicidal pyrimidines” (E I du Pont de Nemours and Company, priority 2003, dated 2014).

Legend:
Test in all cases: Test C pre/postemergence
Type in all cases: in vivo
Details in all cases: Postemergence
[1] = tested on: bermudagrass (Cynodon dactylon)
Procedure, shortened: (§1)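 Seeds sown and sprayed preemergence with test compound in non-phytotoxic solvent containing surfactant; postemergence sprays, same formulation, went onto plants 2 to 18 cm tall (1- to 4-leaf stage). Plants held in greenhouse 12 to 14 days, then visually rated against untreated controls on a 0–100 scale (0 no effect, 100 complete control).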

[2] = tested on: cocklebur (Xanthium strumarium)
Procedure, shortened: as §1

[3] = tested on: common ragweed (Ambrosia elatior)
Procedure, shortened: as §1

[4] = tested on: goosegrass (Eleusine indica)
Procedure, shortened: as §1

[5] = tested on: johnsongrass (Sorghum halepense)
Procedure, shortened: as §1

kochia (Kochia scoparia) = tested on: kochia (Kochia scoparia)
Procedure, shortened: as §1

[6] = tested on: lambsquarters (Chenopodium album)
Procedure, shortened: as §1

[7] = tested on: pigweed (Amaranthus retroflexus)
Procedure, shortened: as §1

soybean (Glycine max) = tested on: soybean (Glycine max)
Procedure, shortened: as §1

[8] = tested on: velvetleaf (Abutilon theophrasti)
Procedure, shortened: as §1

[9] = 125 g ai/ha, scale 0 to 100 (0 no effect, 100 complete control)

`CCOC(=O)c1nc(-c2ccc(Br)cc2)nc(N)c1Cl` [Compound 94, ethyl 6-amino-2-(4-bromophenyl)-5-chloro-4-pyrimidinecarboxylate] was tested, and the pest or weed control at 16 g/ha ([1]; Cynodon dactylon, post-emergence, 16 g ai/ha, read-out: Plant response rating (scale of 0 to 100), Bermudagrass) was 60%, the pest or weed control at 31 g/ha ([1]; Cynodon dactylon, post-emergence, 31 g ai/ha, read-out: Plant response rating (scale of 0 to 100), Bermudagrass) was 70% and the pest or weed control at 62 g/ha ([1]; Cynodon dactylon, post-emergence, 62 g ai/ha, scale 0 to 100 (0 no effect, 100 complete control), read-out: Bermudagrass plant response rating) was 75%. For the same compound, the pest or weed control at 125 g/ha ([1]; Cynodon dactylon, post-emergence, 125 g ai/ha, scale 0 to 100 (0 no effect, 100 complete control), read-out: Bermudagrass plant response rating) was 80%, the pest or weed control at 16 g/ha ([2]; Xanthium strumarium, post-emergence, 16 g ai/ha, read-out: Plant response rating (scale of 0 to 100), Cocklebur) was 75% and the pest or weed control at 31 g/ha ([2]; Xanthium strumarium, post-emergence, 31 g ai/ha, read-out: Plant response rating (scale of 0 to 100), Cocklebur) was 80%. It also gave a pest or weed control at 62 g/ha ([2]; Xanthium strumarium, post-emergence, 62 g ai/ha, read-out: Plant response rating (scale of 0 to 100), Cocklebur) of 90%, a pest or weed control at 125 g/ha ([2]; Xanthium strumarium, post-emergence, 125 g ai/ha, scale 0 to 100 (0 no effect, 100 complete control), read-out: Cocklebur plant response rating) of 100% and a pest or weed control at 16 g/ha ([3]; Ambrosia artemisiifolia, post-emergence, 16 g ai/ha, read-out: Plant response rating (scale of 0 to 100), Ragweed) of 90%. It also gave a pest or weed control at 31 g/ha ([3]; Ambrosia artemisiifolia, post-emergence, 31 g ai/ha, read-out: Plant response rating (scale of 0 to 100), Ragweed) of 90%, a pest or weed control at 62 g/ha ([3]; Ambrosia artemisiifolia, post-emergence, 62 g ai/ha, read-out: Plant response rating (scale of 0 to 100), Ragweed) of 95% and a pest or weed control at 125 g/ha ([3]; Ambrosia artemisiifolia, post-emergence, 125 g ai/ha, scale 0 to 100 (0 no effect, 100 complete control), read-out: Ragweed plant response rating) of 100%. The pest or weed control at 16 g/ha ([4]; Eleusine indica, post-emergence, 16 g ai/ha, read-out: Plant response rating (scale of 0 to 100), Goosegrass) was 35%, the pest or weed control at 31 g/ha ([4]; Eleusine indica, post-emergence, 31 g ai/ha, read-out: Plant response rating (scale of 0 to 100), Goosegrass) was 60% and the pest or weed control at 62 g/ha ([4]; Eleusine indica, post-emergence, 62 g ai/ha, read-out: Plant response rating (scale of 0 to 100), Goosegrass) was 80%. It also gave a pest or weed control at 125 g/ha ([4]; Eleusine indica, post-emergence, 125 g ai/ha, scale 0 to 100 (0 no effect, 100 complete control), read-out: Goosegrass plant response rating) of 80%, a pest or weed control at 16 g/ha ([5]; Sorghum halepense, post-emergence, 16 g ai/ha, read-out: Plant response rating (scale of 0 to 100), Johnsongrass) of 55% and a pest or weed control at 31 g/ha ([5]; Sorghum halepense, post-emergence, 31 g ai/ha, read-out: Plant response rating (scale of 0 to 100), Johnsongrass) of 60%. The pest or weed control at 62 g/ha ([5]; Sorghum halepense, post-emergence, 62 g ai/ha, read-out: Plant response rating (scale of 0 to 100), Johnsongrass) was 75%, the pest or weed control at 125 g/ha ([5]; Sorghum halepense, post-emergence, 125 g ai/ha, scale 0 to 100 (0 no effect, 100 complete control), read-out: Johnsongrass plant response rating) was 90% and the pest or weed control at 16 g/ha (kochia (Kochia scoparia); Bassia scoparia, post-emergence, 16 g ai/ha, read-out: Plant response rating (scale of 0 to 100), Kochia) was 75%. The pest or weed control at 31 g/ha (kochia (Kochia scoparia); Bassia scoparia, post-emergence, 31 g ai/ha, read-out: Plant response rating (scale of 0 to 100), Kochia) was 90%, the pest or weed control at 62 g/ha (kochia (Kochia scoparia); Bassia scoparia, post-emergence, 62 g ai/ha, read-out: Plant response rating (scale of 0 to 100), Kochia) was 95% and the pest or weed control at 125 g/ha (kochia (Kochia scoparia); Bassia scoparia, post-emergence, 125 g ai/ha, scale 0 to 100 (0 no effect, 100 complete control), read-out: Kochia plant response rating) was 100%. It also gave a pest or weed control at 16 g/ha ([6]; Chenopodium album, post-emergence, 16 g ai/ha, read-out: Plant response rating (scale of 0 to 100), Lambsquarters) of 95%, a pest or weed control at 31 g/ha ([6]; Chenopodium album, post-emergence, 31 g ai/ha, read-out: Plant response rating (scale of 0 to 100), Lambsquarters) of 95% and a pest or weed control at 62 g/ha ([6]; Chenopodium album, post-emergence, 62 g ai/ha, read-out: Plant response rating (scale of 0 to 100), Lambsquarters) of 95%. For the same compound, the pest or weed control at 125 g/ha ([6]; Chenopodium album, post-emergence, 125 g ai/ha, scale 0 to 100 (0 no effect, 100 complete control), read-out: Lambsquarters plant response rating) was 100%, the pest or weed control at 16 g/ha ([7]; Amaranthus retroflexus, post-emergence, 16 g ai/ha, read-out: Plant response rating (scale of 0 to 100), Pigweed) was 95% and the pest or weed control at 31 g/ha ([7]; Amaranthus retroflexus, post-emergence, 31 g ai/ha, read-out: Plant response rating (scale of 0 to 100), Pigweed) was 100%. It also gave a pest or weed control at 62 g/ha ([7]; Amaranthus retroflexus, post-emergence, 62 g ai/ha, read-out: Plant response rating (scale of 0 to 100), Pigweed) of 100%, a pest or weed control at 125 g/ha ([7]; Amaranthus retroflexus, post-emergence, 125 g ai/ha, scale 0 to 100 (0 no effect, 100 complete control), read-out: Pigweed plant response rating) of 100% and a plant injury at 16 g/ha (soybean (Glycine max); Glycine max, post-emergence, 16 g ai/ha, read-out: Plant response rating (scale of 0 to 100), Soybean) of 100%. The plant injury at 31 g/ha (soybean (Glycine max); Glycine max, post-emergence, 31 g ai/ha, read-out: Plant response rating (scale of 0 to 100), Soybean) was 100%, the plant injury at 62 g/ha (soybean (Glycine max); Glycine max, post-emergence, 62 g ai/ha, read-out: Plant response rating (scale of 0 to 100), Soybean) was 100% and the plant injury at 125 g/ha (soybean (Glycine max); Glycine max, post-emergence, 125 g ai/ha, scale 0 to 100 (0 no effect, 100 complete control), read-out: Soybean plant response rating) was 100%. For the same compound, the pest or weed control at 16 g/ha ([8]; Abutilon theophrasti, post-emergence, 16 g ai/ha, read-out: Plant response rating (scale of 0 to 100), Velvetleaf) was 75%, the pest or weed control at 31 g/ha ([8]; Abutilon theophrasti, post-emergence, 31 g ai/ha, read-out: Plant response rating (scale of 0 to 100), Velvetleaf) was 90% and the pest or weed control at 62 g/ha ([8]; Abutilon theophrasti, post-emergence, 62 g ai/ha, read-out: Plant response rating (scale of 0 to 100), Velvetleaf) was 95%. For the same compound, the pest or weed control at 125 g/ha ([8]; Abutilon theophrasti, post-emergence, 125 g ai/ha, scale 0 to 100 (0 no effect, 100 complete control), read-out: Velvetleaf plant response rating) was 95%.

With `CCOC(=O)c1nc(-c2ccc(I)cc2)nc(N)c1Cl` [Compound 133] the “Plant response rating (scale of 0 to 100), Bermudagrass” value ([1]; 16 g ai/ha) was 50, the “Plant response rating (scale of 0 to 100), Bermudagrass” value ([1]; 31 g ai/ha) was 85 and the “Bermudagrass plant response rating” value ([1]; 62 g ai/ha, scale 0 to 100 (0 no effect, 100 complete control)) was 85. For the same compound, the “Bermudagrass plant response rating” value [1, 9] was 85, the “Plant response rating (scale of 0 to 100), Cocklebur” value ([2]; 16 g ai/ha) was 75 and the “Plant response rating (scale of 0 to 100), Cocklebur” value ([2]; 31 g ai/ha) was 85. The “Plant response rating (scale of 0 to 100), Cocklebur” value ([2]; 62 g ai/ha) was 95, the “Cocklebur plant response rating” value [2, 9] was 95 and the “Plant response rating (scale of 0 to 100), Ragweed” value ([3]; 16 g ai/ha) was 80. The “Plant response rating (scale of 0 to 100), Ragweed” value ([3]; 31 g ai/ha) was 80, the “Plant response rating (scale of 0 to 100), Ragweed” value ([3]; 62 g ai/ha) was 85 and the “Ragweed plant response rating” value [3, 9] was 95. The “Plant response rating (scale of 0 to 100), Goosegrass” value ([4]; 16 g ai/ha) was 15, the “Plant response rating (scale of 0 to 100), Goosegrass” value ([4]; 31 g ai/ha) was 55 and the “Plant response rating (scale of 0 to 100), Goosegrass” value ([4]; 62 g ai/ha) was 65. The “Goosegrass plant response rating” value [4, 9] was 70, the “Plant response rating (scale of 0 to 100), Johnsongrass” value ([5]; 16 g ai/ha) was 70 and the “Plant response rating (scale of 0 to 100), Johnsongrass” value ([5]; 31 g ai/ha) was 85. The “Plant response rating (scale of 0 to 100), Johnsongrass” value ([5]; 62 g ai/ha) was 90, the “Johnsongrass plant response rating” value [5, 9] was 95 and the “Plant response rating (scale of 0 to 100), Kochia” value (kochia (Kochia scoparia); 16 g ai/ha) was 75. For the same compound, the “Plant response rating (scale of 0 to 100), Kochia” value (kochia (Kochia scoparia); 31 g ai/ha) was 80, the “Plant response rating (scale of 0 to 100), Kochia” value (kochia (Kochia scoparia); 62 g ai/ha) was 85 and the “Kochia plant response rating” value (kochia (Kochia scoparia); [9]) was 85. The “Plant response rating (scale of 0 to 100), Lambsquarters” value ([6]; 16 g ai/ha) was 95, the “Plant response rating (scale of 0 to 100), Lambsquarters” value ([6]; 31 g ai/ha) was 95 and the “Plant response rating (scale of 0 to 100), Lambsquarters” value ([6]; 62 g ai/ha) was 95. For the same compound, the “Lambsquarters plant response rating” value [6, 9] was 100, the “Plant response rating (scale of 0 to 100), Pigweed” value ([7]; 16 g ai/ha) was 85 and the “Plant response rating (scale of 0 to 100), Pigweed” value ([7]; 31 g ai/ha) was 85. For the same compound, the “Plant response rating (scale of 0 to 100), Pigweed” value ([7]; 62 g ai/ha) was 95, the “Pigweed plant response rating” value [7, 9] was 100 and the “Plant response rating (scale of 0 to 100), Soybean” value (soybean (Glycine max); 16 g ai/ha) was 95. The “Plant response rating (scale of 0 to 100), Soybean” value (soybean (Glycine max); 31 g ai/ha) was 95, the “Plant response rating (scale of 0 to 100), Soybean” value (soybean (Glycine max); 62 g ai/ha) was 100 and the “Soybean plant response rating” value (soybean (Glycine max); [9]) was 100. The “Plant response rating (scale of 0 to 100), Velvetleaf” value ([8]; 16 g ai/ha) was 80, the “Plant response rating (scale of 0 to 100), Velvetleaf” value ([8]; 31 g ai/ha) was 85 and the “Plant response rating (scale of 0 to 100), Velvetleaf” value ([8]; 62 g ai/ha) was 85. The “Velvetleaf plant response rating” value [8, 9] was 95.
